Structures can show the parent of a compound that is named as a salt. Where two headings read alike, the source gives them in different places.
What was measured:
[1] = tested on: human neutrophils; conditions: cited from earlier work
[2] = tested on: human eosinophils; conditions: receptor-mediated; cited from earlier work
[3] = tested on: human neutrophils; experiment: cis-unsaturated fatty acid-induced lipid body formation in human neutrophils (osmium staining, light microscopy enumeration); type: cell-based; conditions: for inhibition at 1 µM / inhibition at 10 µM: Homo sapiens, Neutrophil, basal subtracted, read-out: % inhibition
Method: Neutrophils were purified from fresh human blood obtained by venipuncture from healthy adult volunteers and collected into acidified citrate. After addition of 6% dextran 70 (McGaw, Irvine, Calif.), RBCs were allowed to sediment for 1 hour at room temperature. The leukocyte-rich supernatant was overlaid onto an equal volume of Ficoll-Paque gradient (Piscataway, N.J.), and centrifuged at 400×g for 20 min. […] Residual RBCs were lysed with hypotonic saline.
Human leukocytes (10^6 cells/mL) were incubated with varying concentrations of arachidonic acid (AA), oleic acid (OA) or vehicle at 37° C. in a 5% CO2 /95% O2 atmosphere, and after 1 hour leukocytes (10^5 cells per slide) were cytocentrifuged (550 rpm, 5 min) onto glass slides. During inhibitory studies, neutrophils were pretreated for 1 hour with varying concentrations of enzyme inhibitors, protein synthesis inhibitors, or vehicle as indicated. When PKC inhibitors were used, the pre-incubation time was reduced to 30 minutes to avoid toxic effects to the cells. […] Stock solutions for A23187, D609, U-73122, and indomethacin were prepared in DMSO and stored at -20° C. Aliquots were diluted in Ca^++ /Mg^++ fee HBSS to the indicated concentration immediately prior to use. […] The morphology of fixed cells was observed, and lipid bodies were enumerated with phase contrast microscopy and a 100× objective lens in 50 consecutively scanned leukocytes.
Results were expressed as mean±SEM and were analyzed statistically by means of the analysis of variance followed by the Newman-Keuls-Student test with the level of significance set at p<0.05. Correlation coefficients were determined by linear regression, and correlation analysis was performed by Fisher's r to z transformation with the level of significance set at p<0.05.
^1 Neutrophils (10^6 /ml) were pretreated with protein kinase C
(actinomycin D, cycloheximide) for 30 min or with phospholipase C
inhibitors (D609, U73122) for 1 h. The cells were then stimulated with
vehicle, arachidonic acid (15 μM), or oleic acid (10 μM), for 1 h.
Results are mean ± SEM from fifty consecutively counted neutrophils.
Statistically significant differences between the agonist alone and the
inhibitor are represented by an asterisk(*). Percent inhibition has been
calculated after subtracting out the basal number of lipid bodies/PMN
present prior to stimulation.
^1 Neutrophils (10^6 /ml) were pretreated with the NSAID or
vehicle for 1 h then stimulated with vehicle, arachidonic acid, or oleic
± SEM from fifty consecutively counted neutrophils. Statistically
significant differences between the agonist alone and the NSAID are
represented by an asterisk (*). Percent inhibition has been calculated
after subtracting out the basal number of lipid bodies/PMN present prior

[4] = tested on: peritoneal macrophages from wild type mice; experiment: lipid body formation in peritoneal macrophages from wild type mice; type: cell-based, mouse
Method: (§1) FIG. 4 is a graph illustrating the effects of arachidonic acid and oleic acid on lipid body formation in peritoneal macrophages from wild type (+/+) and cyclooxygenase-1 knockout (-/-) mice. The agonists AA and OA are represented by the square and circle symbols, respectively. The closed symbols represent the wild type mice; the open symbols represent the cyclooxygenase-1 knockout mice. Macrophages (10^6 /mL) were incubated with the agonists AA and OA at varying concentrations for an hour. Lipid bodies were enumerated using light microscopy following osmium staining. Each point represents the mean±SEM from fifty consecutively scanned macrophages.
(§2) Cyclooxygenase-1 and cyclooxygenase-2 knockout mice were generated as recently described (Morham et al., Cell 83:473-482 (1995); Langenbach et al., Cell 83:483-492 (1995)). All experiments were carried out with male 8-12 week old mice. Macrophages from cyclooxygenase genetically deficient mice and wild-type litter mates were obtained by lavaging the peritoneal cavity with 5 mL of cold RPMI containing heparin (20 IU/mL).
(§3) ^1 Peritoneal macrophages from wild type and COX 1 knockout mice were
(§4) pretreated with the NSAID or vehicle for 1h and then stimulated with
(§5) arachidonic acid (AA, 15 μM) or vehicle for 1h. Results are mean ±
(§6) SEM from fifty consecutively counted macrophages. The statistically

[5] = tested on: peritoneal macrophages from COX 1 knockout mice; experiment: lipid body formation in peritoneal macrophages from cyclooxygenase-1 knockout mice; type: cell-based, mouse
Method: as §1, §2, §3, §4, §5, §6

[6] = tested on: neutrophils (arachidonic acid uptake); experiment: 14C-arachidonic acid uptake in arachidonic acid-stimulated neutrophils; type: cell-based, human
Method: Neutrophils (10^6 /mL) were labeled with ^14 C-arachidonic acid (0.01 μCi/sample) together with either vehicle, aspirin (10 μg/mL), indomethacin (1 μg/mL) or sodium salicylate (10 μg/mL) for 1 hour. After the incubation period, lipid body formation was elicited by arachidonic acid (15 μM). The cells were washed 3 times in Ca^++ /Mg^++ free HBSS and analysis of incorporated ^14 C-arachidonic acid in the cell pellet was performed by liquid scintillation counting.
^1 The cells were pretreated with ^14 Carachidonic acid (0.01
μCi/sample) plus vehicle, aspirin (10 μg/ml) , sodium salicylate (1
μg/ml) or indomethacin (1 μg/ml) 1 h before the incubation with
arachidonic acid (15 μM). Cells were washed 3 times before the analysi
of incorporated ^14 Carachidonic acid. Results are representative of
independent experiments.

[7] = arachidonic acid 15 μM, inhibitor 1 μM
[8] = arachidonic acid 15 μM, inhibitor 10 μM
[9] = oleic acid 10 μM, inhibitor 1 μM
[10] = oleic acid 10 μM, inhibitor 10 μM
[11] = oleic acid 10 μM, NSAID 10 μg/ml, 1 h pretreatment
[12] = human neutrophils, staurosporine 0.1-1.0 μM, aspirin 10 μg/mL, others as in Tables 1 and 2
[13] = wild type, AA 15 μM, NSAID 10 μg/ml
[14] = COX 1 knockout, AA 15 μM, NSAID 10 μg/ml

CCCCCCCC/C=C\CCCCCCCC(=O)OCC(CO)OC(C)=O (racemic)
induction of lipid body formation [1]: induce lipid body formation

CCCCCC=CCC=CCC=CC=CC(O)CCCC(=O)O (stereo not shown) [5-HETE, 5-hydroxy-6,8,11,14-eicosatetraenoic acid]
induction of lipid body formation [1]: elicit lipid body formation
induction of lipid body formation [2]: elicit lipid body formation

CCCCC/C=C\C[C@H](O)/C=C/C=C\C/C=C\CCCC(=O)O [12-HETE]
induction of lipid body formation [1]: elicit lipid body formation
induction of lipid body formation [2]: elicit lipid body formation

CCCCC[C@H](O)/C=C/C=C\C/C=C\C/C=C\CCCC(=O)O [15-HETE]
induction of lipid body formation [1]: elicit lipid body formation
induction of lipid body formation [2]: elicit lipid body formation

S=C(S)OC1CC2CC1C1CCCC21 (stereo not shown) [D609]
inhibition at 1 µM [3, 7]: 48%
inhibition at 10 µM [3, 8]: 84%
inhibition at 1 µM [3, 9]: 19%
inhibition at 10 µM [3, 10]: 46%
lipid bodies (mean ± SEM)/cell [3, 7]: 6.5 ± 0.2 lipid bodies/cell
lipid bodies (mean ± SEM)/cell [3, 8]: 5.2 ± 0.2 lipid bodies/cell
lipid bodies (mean ± SEM)/cell [3, 9]: 9.4 ± 0.3 lipid bodies/cell
lipid bodies (mean ± SEM)/cell [3, 10]: 7.8 ± 0.2 lipid bodies/cell

O=C(O)c1ccccc1O [Na salicylate, salicylic acid (sodium salt)]
inhibition at 10 µM [3, 11]: 53%
lipid bodies (mean ± SEM) PMN ([3]; arachidonic acid 15 μM, NSAID 10 μg/ml, 1 h pretreatment): 7.9 ± 0.4 lipid bodies/PMN
inhibition of arachidonic acid-induced lipid body formation [3, 12]: significantly inhibited
inhibition of oleic acid-induced lipid body formation [3, 12]: significantly inhibited
lipid bodies (mean ± SEM) PMN [3, 11]: 10.1 ± 0.4 lipid bodies/PMN
% inhibition [4, 13]: 45%
lipid bodies (mean ± SEM)/macrophage [4, 13]: 5.0 ± 0.3 lipid bodies/macrophage
inhibition of lipid body formation in macrophages ([4]; wild-type mice, 10 μg/mL): significantly inhibited
% inhibition [5, 14]: 66%
lipid bodies (mean ± SEM)/macrophage [5, 14]: 4.0 ± 0.4 lipid bodies/macrophage
inhibition of lipid body formation in macrophages ([5]; cyclooxygenase-1-deficient mice, 10 μg/mL): significantly inhibited
inhibition of 14C-arachidonic acid uptake ([6]; arachidonic acid-stimulated cells, aspirin 10 μg/mL, sodium salicylate 10 μg/mL, indomethacin 1 μg/mL): failed to inhibit
14C-AA uptake ([6]; stimulus arachidonate 15 μM, drug 1 μg/ml (table footnote)): 7292 cpm

Reference: US5837548A, “Treatment of inflammation by inhibition of lipid body formation” (Beth Israel Hospital, priority 1995, dated 1998)
